# Source: BindingDB's records for doi:10.1016/S1074-5521(01)00079-5 (State University of New York, 2001)
# Target: HIV-1 protease (Human immunodeficiency virus, UniProt O90785)
# Assay: Enzyme Inhibition Assay
# Sequence of HIV-1 protease (O90785 whole entry): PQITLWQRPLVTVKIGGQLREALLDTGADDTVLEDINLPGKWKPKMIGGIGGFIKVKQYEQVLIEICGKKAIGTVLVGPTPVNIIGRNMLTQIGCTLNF
row,Structure (SMILES),Ki
1,"O=C(NCc1ccccc1)[C@H](Cc1ccccc1)C[Si](O)(O)C[C@@H](Cc1ccccc1)C(=O)NCc1ccccc1 [Silanediol, 17a]",3.2 µM
2,"O=C(NC1c2ccccc2CC1O)[C@H](Cc1ccccc1)CC(O)C[C@@H](Cc1ccccc1)C(=O)NC1c2ccccc2CC1O (stereo partly drawn) [Carbinol, 18b]",0.0038 µM
3,"O=C(NCc1ccccc1)[C@H](Cc1ccccc1)CC(O)C[C@@H](Cc1ccccc1)C(=O)NCc1ccccc1 [Carbinol, 18a]",3.2 µM
